Experiment: Toxicity (LD50)
Conditions: in vivo

For `O=C(O[C@@H]1O[C@H](CO)[C@@H](O)[C@H](O)[C@H]1O)c1cc(O)c(O)c(O)c1` [β-glucogallin, 1-O-galloyl-β-D-glucose], the LD50 was “approx. 2000 mg/kg bodyweight”.
